Assay results published in the supplement of paper PMC10307832.

Experiments:
Test in all cases: relative viability (nuclei count vs DMSO), 5 days (fraction); higher = more cells survive
[1] = compound: COc1cc([C@@H]2c3cc4c(cc3[C@@H](O[C@@H]3O[C@@H]5CO[C@@H](C)O[C@H]5[C@H](O)[C@H]3O)[C@H]3COC(=O)[C@H]23)OCO4)cc(OC)c1O [Etoposide] + CC(=O)c1c(C)c2cnc(Nc3ccc(N4CCNCC4)cn3)nc2n(C2CCCC2)c1=O [Palbociclib] (partner 0.5 µM)
How it was run: (§1)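 Nuclei were stained with Hoechst during a one-step fixation (final 0.05% Triton X-100, 1% formaldehyde, 1 ug/ml Hoechst) carried out 5 days after dosing, then counted on 4× images. The cells, lung cancer lines in 1536-well plates, had been dosed by pin tool the day after seeding with one drug alone or a fixed anchor-drug dose plus five library-drug doses (not always all listed) in √10 steps. Relative viability is the nuclei count in treated wells divided by that in vehicle wells, and each value is the median of duplicate plates.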

[2] = compound: CC1=C(N=C(N=C1N)[C@H](CC(=O)N)NC[C@@H](C(=O)N)N)C(=O)N[C@@H]([C@H](C2=CN=CN2)OC3C(C(C(C(O3)CO)O)O)OC4C(C(C(C(O4)CO)O)OC(=O)N)O)C(=O)N[C@H](C)[C@H]([C@H](C)C(=O)N[C@@H]([C@@H](C)O)C(=O)NCCC5=NC(=CS5)C6=NC(=CS6)C(=O)NCCC[S+](C)C)O [Bleomycin] + CCNC(=O)c1noc(-c2cc(C(C)C)c(O)cc2O)c1-c1ccc(CN2CCOCC2)cc1 [Luminespib] (partner 0.01 µM); details: main component drawn
How it was run: as §1

[3] = compound: CC1=C(N=C(N=C1N)[C@H](CC(=O)N)NC[C@@H](C(=O)N)N)C(=O)N[C@@H]([C@H](C2=CN=CN2)OC3C(C(C(C(O3)CO)O)O)OC4C(C(C(C(O4)CO)O)OC(=O)N)O)C(=O)N[C@H](C)[C@H]([C@H](C)C(=O)N[C@@H]([C@@H](C)O)C(=O)NCCC5=NC(=CS5)C6=NC(=CS6)C(=O)NCCC[S+](C)C)O [Bleomycin] + NC(=O)Nc1cc(-c2cccc(F)c2)sc1C(=O)N[C@H]1CCCNC1 [AZD7762] (partner 0.2 µM); details: main component drawn
How it was run: as §1

[4] = compound: CC1=C(N=C(N=C1N)[C@H](CC(=O)N)NC[C@@H](C(=O)N)N)C(=O)N[C@@H]([C@H](C2=CN=CN2)OC3C(C(C(C(O3)CO)O)O)OC4C(C(C(C(O4)CO)O)OC(=O)N)O)C(=O)N[C@H](C)[C@H]([C@H](C)C(=O)N[C@@H]([C@@H](C)O)C(=O)NCCC5=NC(=CS5)C6=NC(=CS6)C(=O)NCCC[S+](C)C)O [Bleomycin] + CC(=O)c1c(C)c2cnc(Nc3ccc(N4CCNCC4)cn3)nc2n(C2CCCC2)c1=O [Palbociclib] (partner 0.5 µM); details: main component drawn
How it was run: as §1

Row | Cell Line | relative viability ([1]; first compound 0.01 µM) | relative viability ([1]; first compound 0.03162 µM) | relative viability ([1]; first compound 0.1 µM) | relative viability ([1]; first compound 0.3162 µM) | relative viability ([1]; first compound 1 µM) | relative viability ([2]; first compound 0.01 µM) | relative viability ([2]; first compound 0.03162 µM) | relative viability ([2]; first compound 0.1 µM) | relative viability ([2]; first compound 0.3162 µM) | relative viability ([2]; first compound 1 µM) | relative viability ([3]; first compound 0.01 µM) | relative viability ([3]; first compound 0.03162 µM) | relative viability ([3]; first compound 0.1 µM) | relative viability ([3]; first compound 0.3162 µM) | relative viability ([3]; first compound 1 µM) | relative viability ([4]; first compound 0.01 µM) | relative viability ([4]; first compound 0.03162 µM) | relative viability ([4]; first compound 0.1 µM) | relative viability ([4]; first compound 0.3162 µM) | relative viability ([4]; first compound 1 µM)
1 | SW 900 | 0.585 | 0.503 | 0.593 | 0.492 | 0.263 | 0.187 | 0.166 | 0.199 | 0.185 | 0.183 | 0.525 | 0.591 | 0.392 | 0.264 | 0.24 | 0.502 | 0.503 | 0.355 | 0.214 | 0.222
2 | PC-14 | 0.447 | 0.594 | 0.652 | 0.289 | 0.125 | 0.148 | 0.144 | 0.121 | 0.116 | 0.124 | 0.254 | 0.347 | 0.187 | 0.0884 | 0.0848 | 0.193 | 0.174 | 0.127 | 0.0449 | 0.0437
3 | A-427 | 0.51 | 0.479 | 0.486 | 0.378 | 0.282 | 0.747 | 0.775 | 0.753 | 0.256 | 0.158 | 0.7 | 0.748 | 0.542 | 0.353 | 0.241 | 0.458 | 0.453 | 0.447 | 0.276 | 0.256
4 | NCI-H1792 | 0.579 | 0.636 | 0.598 | 0.606 | 0.461 | 0.393 | 0.424 | 0.553 | 0.239 | 0.251 | 0.615 | 0.635 | 0.716 | 0.253 | 0.141 | 0.613 | 0.624 | 0.592 | 0.482 | 0.362
5 | LCLC-97TM1 | 0.243 | 0.248 | 0.169 | 0.165 | 0.121 | 0.519 | 0.635 | 0.51 | 0.269 | 0.187 | 0.135 | 0.141 | 0.102 | 0.0831 | 0.0741 | 0.154 | 0.211 | 0.157 | 0.112 | 0.101
6 | LCLC-103H | 0.526 | 0.553 | 0.509 | 0.457 | 0.407 | 0.849 | 0.826 | 0.747 | 0.496 | 0.333 | 0.7 | 0.8 | 0.792 | 0.666 | 0.418 | 0.501 | 0.525 | 0.547 | 0.373 | 0.43
7 | RERF-LC-KJ | 1.04 | 1.19 | 0.918 | 0.912 | 0.606 | 0.555 | 0.479 | 0.461 | 0.307 | 0.287 | 0.905 | 0.848 | 0.492 | 0.278 | 0.179 | 0.678 | 0.537 | 0.444 | 0.185 | 0.18
8 | BEN | 0.491 | 0.487 |  | 0.454 | 0.539 | 0.327 | 0.329 | 0.342 | 0.332 | 0.2 | 0.735 | 0.736 | 0.66 | 0.534 | 0.606 | 0.482 | 0.473 | 0.452 | 0.444 | 0.408
9 | NCI-H1666 | 0.618 | 0.639 | 0.662 | 0.592 | 0.506 | 0.733 | 0.657 | 0.583 | 0.395 | 0.436 | 0.972 | 0.695 | 0.57 | 0.512 | 0.486 | 0.599 | 0.655 | 0.594 | 0.578 | 0.572
10 | LC-2-ad | 0.52 | 0.509 | 0.557 | 0.455 | 0.452 | 0.68 | 0.572 | 0.563 | 0.29 | 0.262 | 0.761 | 0.775 | 0.644 | 0.316 | 0.26 | 0.454 | 0.541 | 0.421 | 0.3 | 0.31
11 | ChaGo-K-1 | 0.929 | 0.952 | 0.682 | 0.289 | 0.222 | 0.505 | 0.476 | 0.502 | 0.293 | 0.205 | 0.785 | 0.824 | 0.808 | 0.692 | 0.504 | 0.847 | 0.831 | 0.862 | 0.512 | 0.386
12 | NCI-H1975 | 0.548 | 0.665 | 0.521 | 0.331 | 0.281 | 0.29 | 0.168 | 0.177 | 0.164 | 0.178 | 0.609 | 0.649 | 0.555 | 0.259 | 0.291 | 0.377 | 0.398 | 0.397 | 0.226 | 0.178
13 | NCI-H1993 |  | 0.773 | 0.481 | 0.659 | 0.482 | 0.738 | 0.497 | 0.716 | 0.57 | 0.41 | 0.723 | 0.822 | 0.739 | 0.491 | 0.517 | 0.579 | 0.525 | 0.535 | 0.451 | 0.329
14 | NCI-H2347 | 0.314 | 0.397 | 0.375 | 0.381 | 0.346 | 0.275 | 0.381 | 0.431 | 0.235 | 0.385 | 0.727 | 0.858 | 0.714 | 0.325 | 0.45 | 0.43 | 0.479 | 0.459 | 0.359 | 0.338
15 | EMC-BAC-2 | 0.495 | 0.49 | 0.399 | 0.321 | 0.254 | 0.997 | 0.832 | 0.8 | 0.348 | 0.244 | 0.96 | 1.05 | 1.08 | 0.607 | 0.415 | 0.378 | 0.433 | 0.414 | 0.333 | 0.293
